Results: PubChem BioAssay (NCI)
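Dose response: 5 concentrations. Exposure: 48 h. Format: 96-well plates. Endpoint: linear interpolation; highest concentration if not reached. GI50 = concentration required for 50% inhibition of growth. At the TGI there is no net growth.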

Experiments:
Experiment in all cases: inhibition of tumour cell growth, NCI panel, 48 h
U251 CNS = system: U251 CNS
SN12C renal = system: SN12C renal
HOP-92 NSCLC = system: HOP-92 NSCLC
SF-268 CNS = system: SF-268 CNS
SW-620 colon = system: SW-620 colon
A549 NSCLC = system: A549 NSCLC
SNB-19 CNS = system: SNB-19 CNS
786-0 renal = system: 786-0 renal
RPMI-8226 leukemia = system: RPMI-8226 leukemia
K-562 leukemia = system: K-562 leukemia
M14 melanoma = system: M14 melanoma
MOLT-4 leukemia = system: MOLT-4 leukemia
SK-MEL-28 melanoma = system: SK-MEL-28 melanoma
MDA-MB-231 breast = system: MDA-MB-231 breast
SNB-75 CNS = system: SNB-75 CNS
MALME-3M melanoma = system: MALME-3M melanoma
UACC-62 melanoma = system: UACC-62 melanoma
SK-MEL-5 melanoma = system: SK-MEL-5 melanoma
T-47D breast = system: T-47D breast
BT-549 breast = system: BT-549 breast
TK-10 renal = system: TK-10 renal
UACC-257 melanoma = system: UACC-257 melanoma
SK-OV-3 ovarian = system: SK-OV-3 ovarian
SR leukemia = system: SR leukemia
SF-295 CNS = system: SF-295 CNS
PC-3 prostate = system: PC-3 prostate
NCI/ADR-RES ovarian = system: NCI/ADR-RES ovarian
SK-MEL-2 melanoma = system: SK-MEL-2 melanoma
KM12 colon = system: KM12 colon
LOX IMVI melanoma = system: LOX IMVI melanoma
OVCAR-8 ovarian = system: OVCAR-8 ovarian
OVCAR-4 ovarian = system: OVCAR-4 ovarian
MDA-MB-435 = system: MDA-MB-435
EKVX NSCLC = system: EKVX NSCLC
HCT-116 colon = system: HCT-116 colon
NCI-H23 lung = system: NCI-H23 lung
COLO 205 colon = system: COLO 205 colon
NCI-H460 lung = system: NCI-H460 lung
HOP-62 NSCLC = system: HOP-62 NSCLC
CAKI-1 renal = system: CAKI-1 renal
NCI-H522 lung = system: NCI-H522 lung
UO-31 renal = system: UO-31 renal
HL-60(TB) leukemia = system: HL-60(TB) leukemia
IGROV1 ovarian = system: IGROV1 ovarian
RXF 393 renal = system: RXF 393 renal
HT29 colon = system: HT29 colon
CCRF-CEM leukemia = system: CCRF-CEM leukemia
ACHN renal = system: ACHN renal
MCF7 breast = system: MCF7 breast
HS 578T breast = system: HS 578T breast
SF-539 CNS = system: SF-539 CNS

## O=C(NCCNCCO)c1ccc2oc3cc4ccccc4c(=O)n3c2c1
U251 CNS
  GI50: 8.52 µM
  TGI: 17.1 µM
SN12C renal
  GI50: 10.7 µM
  TGI: 33 µM
HOP-92 NSCLC
  GI50: 7.96 µM
  TGI: 29.6 µM
SF-268 CNS
  GI50: 7.42 µM
  TGI: 18.5 µM
SW-620 colon
  GI50: 5.93 µM
  TGI: 14.7 µM
A549 NSCLC
  GI50: 17.6 µM
  TGI: > 50 µM
SNB-19 CNS
  GI50: 14.1 µM
  TGI: 40.9 µM
786-0 renal
  GI50: 14.6 µM
  TGI: 44.4 µM
RPMI-8226 leukemia
  GI50: 12.5 µM
  TGI: 35.6 µM
K-562 leukemia
  GI50: 14.9 µM
  TGI: > 50 µM
M14 melanoma
  GI50: 8.6 µM
  TGI: 16.7 µM
MOLT-4 leukemia
  GI50: 6.88 µM
  TGI: > 50 µM
SK-MEL-28 melanoma
  GI50: 22.8 µM
  TGI: > 50 µM
MDA-MB-231 breast
  GI50: 8.12 µM
  TGI: 19.9 µM
SNB-75 CNS
  GI50: 15.2 µM
  TGI: 47.5 µM
MALME-3M melanoma
  GI50: 12.2 µM
  TGI: 24.1 µM
UACC-62 melanoma
  GI50: 7.85 µM
  TGI: 19 µM
SK-MEL-5 melanoma
  GI50: 9.26 µM
  TGI: 16.4 µM
T-47D breast
  GI50: 10.2 µM
  TGI: 27.4 µM
BT-549 breast
  GI50: 12.3 µM
  TGI: 24.1 µM
TK-10 renal
  GI50: 9.93 µM
  TGI: 20.3 µM
UACC-257 melanoma
  GI50: 9.88 µM
  TGI: 20.2 µM
SK-OV-3 ovarian
  GI50: 8.66 µM
  TGI: 20.4 µM
SR leukemia
  GI50: 4.64 µM
  TGI: > 50 µM
SF-295 CNS
  GI50: 14.8 µM
  TGI: > 50 µM
PC-3 prostate
  GI50: 13.2 µM
  TGI: > 50 µM
NCI/ADR-RES ovarian
  GI50: > 50 µM
  TGI: > 50 µM
SK-MEL-2 melanoma
  GI50: 6.52 µM
  TGI: 15.5 µM
KM12 colon
  GI50: 10.5 µM
  TGI: 40.4 µM
LOX IMVI melanoma
  GI50: 6.72 µM
  TGI: 14 µM
OVCAR-8 ovarian
  GI50: 8.33 µM
  TGI: 25.5 µM
OVCAR-4 ovarian
  GI50: 15.8 µM
  TGI: 36.8 µM
MDA-MB-435
  GI50: 10.3 µM
  TGI: 24.2 µM
EKVX NSCLC
  GI50: 5.63 µM
  TGI: 19.2 µM
HCT-116 colon
  GI50: 8.42 µM
  TGI: 19.8 µM
NCI-H23 lung
  GI50: 9.97 µM
  TGI: 23.4 µM
COLO 205 colon
  GI50: 12 µM
  TGI: > 50 µM
NCI-H460 lung
  GI50: 7.08 µM
  TGI: 15.4 µM
HOP-62 NSCLC
  GI50: 9.6 µM
  TGI: 25.5 µM
CAKI-1 renal
  GI50: 9.56 µM
  TGI: 29.6 µM
NCI-H522 lung
  GI50: 5.62 µM
  TGI: 14.2 µM
UO-31 renal
  GI50: 7.11 µM
  TGI: 16.8 µM
HL-60(TB) leukemia
  GI50: 11.7 µM
  TGI: 34 µM
IGROV1 ovarian
  GI50: 5.77 µM
  TGI: 17.7 µM
RXF 393 renal
  GI50: 9.96 µM
  TGI: 21.1 µM
HT29 colon
  GI50: 16.1 µM
  TGI: > 50 µM

## Cc1c2c(cc[n+]1Cc1ccccc1)c1ccc(OCC3CCCCC3)cc1n2CC1CCCCC1
CCRF-CEM leukemia
  GI50: 0.207 µM
  TGI: 0.787 µM
ACHN renal
  GI50: 1.24 µM
  TGI: 2.53 µM
SK-MEL-28 melanoma
  GI50: 0.59 µM
  TGI: 1.88 µM
SNB-75 CNS
  GI50: 0.293 µM
  TGI: 1.47 µM
UACC-62 melanoma
  GI50: 0.342 µM
  TGI: 1.28 µM
T-47D breast
  GI50: 0.56 µM
  TGI: 1.79 µM
MCF7 breast
  GI50: 0.306 µM
  TGI: 1.11 µM
UACC-257 melanoma
  GI50: 0.299 µM
  TGI: 0.961 µM
HS 578T breast
  GI50: 0.525 µM
  TGI: 4.06 µM
SK-OV-3 ovarian
  GI50: 0.506 µM
  TGI: 1.56 µM
NCI/ADR-RES ovarian
  GI50: 1.75 µM
  TGI: 4.29 µM
OVCAR-8 ovarian
  GI50: 0.364 µM
  TGI: 1.35 µM
SF-539 CNS
  GI50: 1.49 µM
  TGI: 2.88 µM
OVCAR-4 ovarian
  GI50: 0.235 µM
  TGI: 0.735 µM
CAKI-1 renal
  GI50: 1.28 µM
  TGI: 2.64 µM
NCI-H522 lung
  GI50: 0.261 µM
  TGI: 0.788 µM
IGROV1 ovarian
  GI50: 0.525 µM
  TGI: 2.51 µM
